134 molecules from the OPERA property sets (Mansouri et al. 2018) can be followed below.

Peptide text beside a SMILES is read from it.

What is called logP is the decadic logarithm of the partition coefficient of the neutral form, usually between octanol and water. In turn, `CC1(C)S[C@@H]2[C@H](NC(=O)COc3ccccc3)C(=O)N2[C@H]1C(=O)O` showed a logP of 2.09.
With `CCNC(=O)c1ccc(S(N)(=O)=O)cc1` the figure was 0.03; with `c1ccc(COc2ccccc2)cc1`, 3.79.
The molecule `O=C(O)COc1ccc(F)cc1` had a logP of 1.64.
`COc1ccc2cnccc2c1` showed a logP of 2.22.
`CC(C)(C)C(=O)OCC1CCC(n2cnc3c(=O)[nH]cnc32)O1` (centres undefined) came in with a logP of 0.6.
`COc1cccnc1CCCCNc1ncc(Cc2ccc(C)nc2)c(=O)[nH]1` registered a logP of 2.58.
Turning to `CCCCC(NC(C)=O)C(=O)OC` (centres undefined), the logP was 0.79.
Consider `CN(C)c1cccnn1`, for which the logP was found to be 0.29.
Consider `Cc1noc(NS(=O)(=O)c2ccc(N)cc2)c1C`, for which the logP was 1.01.
The molecule `O=C(O)c1ccccc1Br` came in with a logP of 2.2.
For the molecule `CC(C)NC(=O)NO`, the logP worked out at 0.2.
With `Cc1ccc(Cl)cc1` the figure was 3.33.
Molecule `C#CC(C)(C)O` yielded a logP of 0.28.
The molecule `COC1CC(OC2CCC3(C)C(CCC4C3CC(O)C3(C)C(C5=CC(=O)OC5)CCC43O)C2)OC(C)C1OC1CC(O)C(OC2CC(O)C(OC)C(C)O2)C(C)O1` (centres undefined) came in with a logP of 2.14.
For `FC(F)(F)c1nc2c(Br)c(Br)c(Br)c(Br)c2[nH]1`, the logP was determined as 4.81.
Consider `CNC(=O)Oc1ccccc1C(C)C`, for which the logP was determined as 2.31.
To `Brc1cccnc1` belongs 1.6.
With `CN(c1ccccc1)c1ccccc1`, the logP amounted to 3.9.
With `CCc1ccc[nH]1`, the logP turned out to be 1.59.
Regarding `Cc1ccc2cc3c(ccc4ccccc43)c3c2c1CC3`, the logP worked out at 6.42.
In turn, `CCOC(C)=O` came in with a log partition coefficient (logP) of 0.73.
As to `CC(=Cc1ccccc1)[N+](=O)[O-]`, the logP was determined as 2.52.
On to `NNC(=O)c1ccnc([N+](=O)[O-])c1`, for which the logP was -0.76.
For `COc1ccc(CC(=O)O)cc1`, the logP is 1.42.
In the case of `NC(=O)N/N=C/c1ccc([N+](=O)[O-])o1`, the logP worked out at 0.23.
In turn, `O=c1[nH]ncc2ccccc12` displayed a logP of 0.75.
With `Cc1[nH]ccc(=O)c1O`, the logP was -0.49.
With `O=C1Nc2ccccc2C1=O`, the logP came out at 0.83.
Consider `CCNc1nc(Cl)nc(N(CC)CC)n1`, for which the logP turned out to be 3.34.
With `C=C(Cl)Cl`, the logP was 2.13.
In turn, `O=C(O)c1cc(Cl)ccc1O` displayed a logP of 3.09.
`Cc1cc(-c2ccc(N)c(C)c2)ccc1N` gave a logP of 2.34.
With `CCCCCCCCOC(=O)c1cc(O)c(O)c(O)c1` the figure was 3.66; with `CN(C)CCCCc1cccnc1`, 1.49.
For `NC(=O)CCc1ccccc1`, the logP came out at 0.91.
With `CCOc1ccc(NC(=O)OC2CCCC2)cc1OCC` the figure was 3.33; with `CCCc1cc(C(=O)NN)ccn1`, 0.63.
For `CNN`, the logP is -1.05.
In turn, `CCNC(=O)c1cccnc1` yielded a logP of 0.31.
`C[C@@H]1C[C@H]2C3C[C@H](F)C4=CC(=O)C=CC4(C)[C@@]3(F)[C@@H](O)CC2(C)[C@@]1(O)C(=O)COC(=O)C(C)(C)C` (some centres undefined) came in with a logP of 3.86.
For the molecule `C=CC#N`, the logP worked out at 0.25.
Consider `O=c1[nH]cnc2nc[nH]c12`, for which the logP was -1.11.
For the molecule `CN(C)CCCc1ccco1`, the logP was determined as 2.08.
`CCCCCOCc1ccccc1NC(=O)OCCN1CCCCC1` gave a logP of 4.42.
With `Oc1ccc(C(c2ccccc2)c2ccc(O)cc2)cc1` the figure was 4.3.
The molecule `COC1C(O)C(C)OC(OC2CCC3(C)C(CCC4C3CCC3(C)C4(O)CC(O)C34C=CC(=O)OC4)C2)C1O` (centres undefined) had a logP of 0.59.
To `Cn1cccc1C=NNC(=O)Nc1ccccc1` belongs 2.71.
With `O=CC(Cl)(Cl)Cl`, the logP came out at 0.99.
To `CCC(=O)OC1(C(C)=O)C(C)CC2C3CCC4=CC(=O)C=CC4(C)C3(F)C(=O)CC21C` (centres undefined) belongs 3.09; to `CN(C)C(N(C)C)=S(I)c1ccc(Br)cc1` (centres undefined), 0.06.
In the case of `CN(C)C`, the lipophilicity (logP) is 0.16.
`CON(C)C(=O)Nc1ccc(N)cc1` came in with a log partition coefficient (logP) of -0.16.
Regarding `NNC(=O)c1ccnc(Cl)c1`, the logP stood at 0.11.
`O=C(O)COc1ccc([N+](=O)[O-])cc1` had a logP of 1.48.
To `CCOC(=O)C(F)(F)C(F)(F)F` belongs 2.12; to `C=C(C)C(=O)O`, 0.93; to `CNC(=O)Oc1ccc(C(C)C)c(C)c1`, 3.11.
Molecule `COCc1ccc([N+](=O)[O-])o1` showed a logP of 0.89.
Regarding `CCOC(=O)C(C#N)=NNc1ccccc1Cl`, the logP amounted to 3.38.
`COc1ccncc1` yielded a logP of 1.
For the molecule `Oc1ccccc1C=Nc1ccccc1`, the logP stood at 3.09.
For `CC(C)CCO[N+](=O)[O-]`, the logP turned out to be 2.84.
To `CC[C@H](C)[C@H](NC(C)=O)C(=O)N[C@@H](C)C(=O)N[C@H](C(N)=O)C(C)C` belongs -0.21; to `Cn1c([N+](=O)[O-])cnc1-c1nc2ccccc2n1CCCN1CCOCC1`, 1.8; to `c1cc2ccc3ccc4ccc5cccc6c(c1)c2c3c4c56`, 6.63.
To `CCCOc1ccccc1` belongs 3.18; to `NS(=O)(=O)c1nc2ccccc2s1`, 1.33; to `NC(=O)c1cccc([N+](=O)[O-])c1`, 0.77.
As to `CNc1c(NCCSCc2nc[nH]c2C)c(=O)c1=O`, the lipophilicity (logP) is -0.08.
With `CC(C)c1ccccc1O`, the log partition coefficient (logP) is 2.88.
`CCC1(C2=CCCCC2)C(=O)NC(=O)NC1=O` came in with a logP of 1.77.
Regarding `CC(=O)c1ccccc1C(=O)O`, the logP turned out to be 0.81.
To `CS(=O)(=O)c1cccc([N+](=O)[O-])c1` belongs 0.5; to `COC(=O)c1cc(Cl)ccc1N`, 3.3; to `Cc1cccc(NC(N)=O)c1`, 1.29.
The molecule `c1ccc2sccc2c1` came in with a logP of 3.12.
For `O=[N+]([O-])c1cc(Cl)ccc1Cl`, the log partition coefficient (logP) amounted to 3.09.
As to `CCC(C)c1ccccc1O` (centres undefined), the logP came out at 3.27.
As for `Oc1ccc(Nc2ccccc2)cc1`, the logP was 2.82.
For the molecule `CC(C)SC(C)C`, the logP came to 2.84.
`O=C(COC(=O)c1ccccc1)NC1CCCCC1` yielded a logP of 2.81. This logP and that of the molecule before are within 0.2 log units of each other.
Take `CCCC(=NOCC)C1C(=O)CC(C)(C)OC1=O` (centres undefined): the logP is 2.56.
To `CC(C)c1ccccc1OC(=O)N(C)C` belongs 2.65; to `O=[N+]([O-])c1ccc2oncc2c1`, 1.46.
With `CCCNC(=O)NS(=O)(=O)c1ccc(Cl)cc1` the figure was 2.27; with `CCC(C)(C)C(=O)O`, 1.9; with `CCNc1nc(NCC(C)C)nc(SC(F)F)n1`, 4.3.
To `CC(=O)Oc1cccc(Cl)c1` belongs 2.32; to `CCC(C)C(NC(=O)C(CC(N)=O)NC(C)=O)C(N)=O` (stereo not drawn) (Ac-Asn-Ile-NH2; configuration not given here), -1.43.
The molecule `CC(=S)N(c1ccccc1)c1ccccc1` had a logP of 2.83.
The molecule `CCC(=O)CC` yielded a log partition coefficient (logP) of 0.99.
The molecule `CC(C)c1cccc(C(C)C)c1NC(N)=O` had a logP of 2.26.
With `Cc1ccc(NS(=O)(=O)c2ccc(N)cc2)cc1` the figure was 2.11; with `Cc1ccc2cccc(C)c2c1`, 4.44.
Turning to `CCCCNC1=CC(=O)c2ccccc2C1=O`, the logP was determined as 3.11.
`CCOP(=S)(OCC)Oc1ccc(SC)cc1C` gave a logP of 4.16.
Molecule `CC(=O)S[C@@H]1CC2=CC(=O)CC[C@]2(C)[C@H]2CC[C@@]3(C)[C@@H](CC[C@@]34CCC(=O)O4)[C@H]12` yielded a logP of 2.78.
`Nc1nc(N)nc(-c2ccccc2Br)n1`: the logP came out at 1.26.
In turn, `NC(C(=O)O)c1ccccc1` (centres undefined) had a logP of -1.7.
To `Nc1nc(=O)c2ccccc2o1` belongs 0.27.
For the molecule `CCCCn1cnc2c(N)ncnc21`, the logP was 1.25.
`CC(C)c1ccccc1OC(=O)c1ccc(N)cc1O` came in with a logP of 4.28.
In turn, `O=C(OCCOCCO)c1ccccc1` returned a logP of 1.16.
To `O=c1[nH]c(=O)c2[nH]cnc2[nH]1` belongs -0.73; to `Cc1cccc(OCc2ccccc2)n1`, 3.43.
For `CNC(=O)CSP(=S)(OC)OC`, the logP is 0.78.
In turn, `CCOP(=S)(OCC)Oc1nc(Cl)n(C(C)C)n1` gave a logP of 3.82.
With `CC(O)CO` (centres undefined) the figure was -0.92.
In turn, `CCOC(=O)c1ccc(N=NN(C)CCO)cc1` registered a logP of 2.66.
`CC(C)c1ccc([N+](=O)[O-])cc1` came in with a logP of 3.45.
Molecule `Cc1cccc(OC(=O)c2ccc(N)cc2O)c1` had a logP of 3.64.
`CCC(CC)C(=O)NC(N)=O` returned a lipophilicity (logP) of 0.91.
To `CN(N=O)C(=O)Nc1ccc(F)cc1` belongs 1.88; to `NS(=O)(=O)c1ccc2c(c1)S(=O)(=O)NCN2`, -0.52.
On to `COc1ccc(C(c2ccc(OC)cc2)C(C)[N+](=O)[O-])cc1` (centres undefined), for which the logP came to 3.87.
With `Nc1nc(N)c2ccccc2n1` the figure was 1.
Turning to `Nc1ccc(C(=O)O)cc1O`, the lipophilicity (logP) came to 0.5.
In turn, `COc1ccc(C=CC(=O)O)cc1OC` displayed a logP of 2.34.
`CNC(=O)Oc1ccccc1I` registered a logP of 1.94.
Molecule `N=C(N)NS(=O)(=O)c1ccc(N)cc1` showed a logP of -1.22.
`O=C1CC(Sc2ccccc2)N1` (centres undefined) came in with a logP of 1.58.
Take `O=C(COc1ccccc1)N1CCOCC1`: the logP is 0.74.
`CCNC` gave a logP of 0.15.
Turning to `Nc1ccc(Sc2ccc(N)cc2)cc1`, the logP came to 2.18.
Regarding `C1CC1`, the logP was 1.72.
Molecule `Oc1c(Cl)ccc(Cl)c1Cl` gave a logP of 3.77.
In turn, `O=C1c2ccccc2C(=O)N1SC(Cl)(Cl)Cl` had a logP of 2.85.
Consider `O=C1NC(=O)C(c2ccccc2)(c2ccccc2)N1`, for which the logP turned out to be 2.47.
As for `CCCC(=O)O[C@]1(C(=O)CCl)[C@@H](C)C[C@H]2[C@@H]3CCC4=CC(=O)C=C[C@]4(C)[C@@]3(F)C(=O)C[C@@]21C`, the logP worked out at 3.76.
As for `CC12CCC(=O)C=C1CCC1C2C(O)CC2(C)C1CCC2(O)C(=O)COC1OC(CO)C(O)C(O)C1O` (centres undefined), the logP turned out to be 0.15.
`Cc1ccccc1S(I)=C(N(C)C)N(C)C` (centres undefined): the logP was -0.1.
Take `NC(=S)c1ccccn1`: the logP was found to be 1.24.
The molecule `CC(=O)Nc1cccc(C)c1` displayed a logP of 1.68.
